Patent publication EP4745137A1 (Gluetacs Therapeutics (Shanghai) Co., Ltd., priority 2023, dated 2025)

How the values were obtained:
[1] = target: T1, IKZF3 (Homo sapiens, UniProt Q96SW2+Q9UKT9); test: Western-blot assay of substrate protein degradation in hPBMCs, IKZF3; format: cell-based; settings: 24 hours of compound treatment, compounds tested at 50 nM and 500 nM (concentration of the table not stated)
T1 construct: endogenous in cells; host or cells: hPBMCs (Milecell Biotechnologies)

[2] = target: T2, human Cereblon WT GST-tagged protein (Homo sapiens, UniProt Q96SW2); test: CRBN-binding affinity by HTRF (CEREBLON BINDING kit); settings: HTRF inhibitory activity, CEREBLON BINDING kit; read-out: HTRF IC50
T2 construct: purchased CISBIO 64BDCRBNPEH
T2 sequence (Q96SW2 whole entry): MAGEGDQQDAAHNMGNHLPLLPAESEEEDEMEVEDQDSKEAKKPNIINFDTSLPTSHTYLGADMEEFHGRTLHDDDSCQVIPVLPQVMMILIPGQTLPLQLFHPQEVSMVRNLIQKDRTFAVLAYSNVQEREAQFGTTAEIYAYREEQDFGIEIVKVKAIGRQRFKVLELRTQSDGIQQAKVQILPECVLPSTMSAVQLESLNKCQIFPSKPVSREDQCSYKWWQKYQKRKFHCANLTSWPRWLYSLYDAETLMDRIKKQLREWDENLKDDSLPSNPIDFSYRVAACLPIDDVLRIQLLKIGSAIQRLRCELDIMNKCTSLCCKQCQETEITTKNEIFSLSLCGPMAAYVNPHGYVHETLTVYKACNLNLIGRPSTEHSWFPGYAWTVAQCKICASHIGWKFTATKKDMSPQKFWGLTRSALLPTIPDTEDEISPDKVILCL

[3] = target: T3, GSPT1 (Homo sapiens, UniProt P15170+Q96SW2); test: Western-blot assay of substrate protein degradation in hPBMCs, GSPT1; format: cell-based; settings: 24 hours of compound treatment, compounds tested at 50 nM and 500 nM (concentration of the table not stated)
T3 construct: endogenous in cells; host or cells: hPBMCs (Milecell Biotechnologies)
T3 sequence (P15170 whole entry): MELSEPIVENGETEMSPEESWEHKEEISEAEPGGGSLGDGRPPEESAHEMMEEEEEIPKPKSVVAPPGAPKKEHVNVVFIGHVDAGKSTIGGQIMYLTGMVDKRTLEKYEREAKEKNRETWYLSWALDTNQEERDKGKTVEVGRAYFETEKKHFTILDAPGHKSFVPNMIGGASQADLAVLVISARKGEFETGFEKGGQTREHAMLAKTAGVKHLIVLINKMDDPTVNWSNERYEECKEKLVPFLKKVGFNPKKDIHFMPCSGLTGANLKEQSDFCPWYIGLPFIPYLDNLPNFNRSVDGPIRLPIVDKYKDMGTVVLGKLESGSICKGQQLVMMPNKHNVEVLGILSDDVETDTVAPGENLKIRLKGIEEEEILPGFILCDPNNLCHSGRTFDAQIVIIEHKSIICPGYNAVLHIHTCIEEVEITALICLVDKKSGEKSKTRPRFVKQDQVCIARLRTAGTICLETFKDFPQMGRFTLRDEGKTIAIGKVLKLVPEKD
T3 sequence (Q96SW2 whole entry): as the sequence (Q96SW2 whole entry) above
T3 sequence (Q16531 whole entry partner): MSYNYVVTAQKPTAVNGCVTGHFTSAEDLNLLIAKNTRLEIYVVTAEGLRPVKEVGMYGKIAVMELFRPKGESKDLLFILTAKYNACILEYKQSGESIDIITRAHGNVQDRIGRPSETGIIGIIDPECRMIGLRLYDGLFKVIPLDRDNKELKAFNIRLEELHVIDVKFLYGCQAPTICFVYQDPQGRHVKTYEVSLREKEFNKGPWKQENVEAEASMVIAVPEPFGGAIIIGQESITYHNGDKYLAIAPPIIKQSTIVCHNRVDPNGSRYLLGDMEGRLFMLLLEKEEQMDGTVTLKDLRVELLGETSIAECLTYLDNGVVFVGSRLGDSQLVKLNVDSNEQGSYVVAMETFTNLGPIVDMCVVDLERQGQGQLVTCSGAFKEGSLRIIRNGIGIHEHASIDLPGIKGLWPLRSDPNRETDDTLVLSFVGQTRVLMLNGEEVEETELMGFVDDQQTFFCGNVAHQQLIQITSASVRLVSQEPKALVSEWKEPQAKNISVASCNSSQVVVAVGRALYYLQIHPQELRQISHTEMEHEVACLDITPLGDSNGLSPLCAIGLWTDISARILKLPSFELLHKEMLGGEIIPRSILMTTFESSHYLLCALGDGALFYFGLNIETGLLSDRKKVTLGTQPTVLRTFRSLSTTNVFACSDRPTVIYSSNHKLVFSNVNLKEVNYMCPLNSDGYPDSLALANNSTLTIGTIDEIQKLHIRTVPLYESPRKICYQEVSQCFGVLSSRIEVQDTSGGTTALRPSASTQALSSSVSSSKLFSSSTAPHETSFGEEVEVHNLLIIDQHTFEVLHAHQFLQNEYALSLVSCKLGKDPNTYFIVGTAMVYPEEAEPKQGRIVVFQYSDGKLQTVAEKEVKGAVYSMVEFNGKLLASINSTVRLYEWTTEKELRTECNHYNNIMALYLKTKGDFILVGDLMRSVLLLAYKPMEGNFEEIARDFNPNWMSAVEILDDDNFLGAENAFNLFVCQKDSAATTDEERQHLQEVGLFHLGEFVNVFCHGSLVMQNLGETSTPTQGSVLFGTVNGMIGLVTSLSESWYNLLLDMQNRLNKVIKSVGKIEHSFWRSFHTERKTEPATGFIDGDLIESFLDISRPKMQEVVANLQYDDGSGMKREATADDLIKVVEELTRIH

[4] = target: T4, WEE1 (Homo sapiens, UniProt P30291+Q96SW2); test: Western-blot assay of substrate protein degradation in hPBMCs, WEE1; format: cell-based; settings: 24 hours of compound treatment, compounds tested at 50 nM and 500 nM (concentration of the table not stated)
T4 construct: endogenous in cells; host or cells: hPBMCs (Milecell Biotechnologies)
T4 sequence (P30291 whole entry): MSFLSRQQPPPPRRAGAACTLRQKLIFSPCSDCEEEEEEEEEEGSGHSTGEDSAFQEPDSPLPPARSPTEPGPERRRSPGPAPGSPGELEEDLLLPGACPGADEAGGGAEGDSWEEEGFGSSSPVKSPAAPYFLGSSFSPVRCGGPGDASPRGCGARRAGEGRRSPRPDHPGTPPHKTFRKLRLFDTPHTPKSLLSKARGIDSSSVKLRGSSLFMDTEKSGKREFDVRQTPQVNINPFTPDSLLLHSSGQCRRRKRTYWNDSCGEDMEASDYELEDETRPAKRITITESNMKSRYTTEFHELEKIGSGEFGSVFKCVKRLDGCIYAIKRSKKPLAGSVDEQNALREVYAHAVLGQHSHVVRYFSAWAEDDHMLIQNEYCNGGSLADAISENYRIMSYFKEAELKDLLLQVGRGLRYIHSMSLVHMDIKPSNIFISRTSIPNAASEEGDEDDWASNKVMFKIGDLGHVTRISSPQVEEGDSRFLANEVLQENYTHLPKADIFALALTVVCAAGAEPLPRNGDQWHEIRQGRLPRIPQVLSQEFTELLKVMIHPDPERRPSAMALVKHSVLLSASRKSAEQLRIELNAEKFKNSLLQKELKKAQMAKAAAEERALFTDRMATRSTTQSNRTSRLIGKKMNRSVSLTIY
T4 sequence (Q96SW2 whole entry): as the sequence (Q96SW2 whole entry) above
T4 sequence (Q16531 whole entry partner): as the sequence (Q16531 whole entry partner) above

[5] = target: T5, IKZF2 (Homo sapiens, UniProt Q96SW2+Q9UKS7); test: Western-blot assay of substrate protein degradation in hPBMCs, IKZF2; format: cell-based; settings: 24 hours of compound treatment, compounds tested at 50 nM and 500 nM (concentration of the table not stated)
T5 construct: endogenous in cells; host or cells: hPBMCs (Milecell Biotechnologies)
T5 sequence (Q9UKS7 whole entry): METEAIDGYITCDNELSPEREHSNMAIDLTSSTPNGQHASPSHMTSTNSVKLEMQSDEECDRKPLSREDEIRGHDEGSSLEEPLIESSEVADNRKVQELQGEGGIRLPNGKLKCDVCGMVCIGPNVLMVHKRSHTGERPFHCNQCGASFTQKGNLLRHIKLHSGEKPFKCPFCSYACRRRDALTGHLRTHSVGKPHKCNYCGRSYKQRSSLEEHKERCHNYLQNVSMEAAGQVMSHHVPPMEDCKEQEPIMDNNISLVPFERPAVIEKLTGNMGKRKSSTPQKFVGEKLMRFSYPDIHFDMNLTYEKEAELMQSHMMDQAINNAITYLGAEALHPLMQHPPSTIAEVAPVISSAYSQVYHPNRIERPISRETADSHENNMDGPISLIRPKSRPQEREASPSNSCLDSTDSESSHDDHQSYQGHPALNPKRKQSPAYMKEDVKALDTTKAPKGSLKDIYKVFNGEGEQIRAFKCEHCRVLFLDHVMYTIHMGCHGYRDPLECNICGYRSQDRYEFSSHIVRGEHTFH
T5 sequence (Q96SW2 whole entry): as the sequence (Q96SW2 whole entry) above
T5 sequence (Q16531 whole entry partner): as the sequence (Q16531 whole entry partner) above

[6] = target: T6, IKZF1 (Homo sapiens, UniProt Q13422+Q96SW2); test: Western-blot assay of substrate protein degradation in hPBMCs, IKZF1; format: cell-based; settings: 24 hours of compound treatment, compounds tested at 50 nM and 500 nM (concentration of the table not stated)
T6 construct: endogenous in cells; host or cells: hPBMCs (Milecell Biotechnologies)

[7] = target: T7, CK1α (Homo sapiens, UniProt P48729+Q96SW2); test: Western-blot assay of substrate protein degradation in hPBMCs, CK1α; format: cell-based; settings: 24 hours of compound treatment, compounds tested at 50 nM and 500 nM (concentration of the table not stated)
T7 construct: endogenous in cells; host or cells: hPBMCs (Milecell Biotechnologies)
T7 sequence (P48729 whole entry): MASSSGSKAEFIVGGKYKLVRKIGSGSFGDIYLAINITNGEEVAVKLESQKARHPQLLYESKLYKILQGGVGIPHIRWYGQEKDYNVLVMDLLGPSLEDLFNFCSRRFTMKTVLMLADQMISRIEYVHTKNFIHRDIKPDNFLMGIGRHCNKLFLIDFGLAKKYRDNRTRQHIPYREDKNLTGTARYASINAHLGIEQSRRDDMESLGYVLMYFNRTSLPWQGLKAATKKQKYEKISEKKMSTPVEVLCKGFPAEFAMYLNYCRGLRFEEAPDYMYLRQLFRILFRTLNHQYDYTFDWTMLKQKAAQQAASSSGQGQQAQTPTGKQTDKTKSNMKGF
T7 sequence (Q96SW2 whole entry): as the sequence (Q96SW2 whole entry) above
T7 sequence (Q16531 whole entry partner): as the sequence (Q16531 whole entry partner) above

T1 sequence (Q9UKT9 whole entry): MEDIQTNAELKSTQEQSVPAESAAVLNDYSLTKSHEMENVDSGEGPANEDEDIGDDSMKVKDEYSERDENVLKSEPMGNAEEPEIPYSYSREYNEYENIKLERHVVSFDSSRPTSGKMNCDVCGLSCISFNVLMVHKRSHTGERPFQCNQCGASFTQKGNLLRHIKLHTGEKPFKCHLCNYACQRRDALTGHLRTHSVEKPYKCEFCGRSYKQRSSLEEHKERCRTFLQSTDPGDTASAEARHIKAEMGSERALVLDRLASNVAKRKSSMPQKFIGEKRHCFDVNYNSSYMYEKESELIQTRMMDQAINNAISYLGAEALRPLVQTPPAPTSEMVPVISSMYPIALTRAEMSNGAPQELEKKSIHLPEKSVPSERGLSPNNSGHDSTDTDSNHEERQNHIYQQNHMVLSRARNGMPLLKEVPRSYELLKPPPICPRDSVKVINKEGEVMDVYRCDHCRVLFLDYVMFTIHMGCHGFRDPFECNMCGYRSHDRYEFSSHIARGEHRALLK
T1 sequence (Q96SW2 whole entry): as the sequence (Q96SW2 whole entry) above
T1 sequence (Q16531 whole entry partner): as the sequence (Q16531 whole entry partner) above

SMILES | IKZF3 substrate protein remaining % [1] | IC50 [2] [nM] | GSPT1 substrate protein remaining % [3] | Weel substrate protein remaining % [4] | IKZF2 substrate protein remaining % [5] | IKZF 1 substrate protein remaining % [6] | CK1a substrate protein remaining % [7]
O=C1CCC(N2Cc3cc(CN4CCN(c5noc6cc(F)ccc56)CC4)ccc3C2=O)C(=O)N1 (centres unmarked) [GT-04667, 3-(5-((4-(6-fluorobenzo[d]isoxazol-3-yl)piperazin-1-yl)methyl)-1-oxoisoindolin-2-yl)piperidine-2,6-dione] | A (0% ≤ substrate protein remaining % ≤ 80%) | 500 to 1000 | A (0% ≤ substrate protein remaining % ≤ 80%) | A (0% ≤ substrate protein remaining % ≤ 80%) | A (0% ≤ substrate protein remaining % ≤ 80%) | A (0% ≤ substrate protein remaining % ≤ 80%) | B (80%< substrate protein remaining %≤ 100%)
O=C1CCC(N2Cc3cc(CN4CC(N5CCc6cc(F)ccc65)C4)ccc3C2=O)C(=O)N1 (centres unmarked) [GT-04677, 3-(5-((3-(5-fluoroindolin-1-yl)azetidin-1-yl)methyl)-1-oxoisoindolin-2-yl)piperidine-2,6-dione] | A (0% ≤ substrate protein remaining % ≤ 80%) | < 500 | A (0% ≤ substrate protein remaining % ≤ 80%) | A (0% ≤ substrate protein remaining % ≤ 80%) | A (0% ≤ substrate protein remaining % ≤ 80%) | A (0% ≤ substrate protein remaining % ≤ 80%) | B (80%< substrate protein remaining %≤ 100%)
O=C1CCC(N2Cc3cc(CN4CCN(c5ncnc6sccc56)CC4)ccc3C2=O)C(=O)N1 (centres unmarked) [GT-04678, 3-(1-oxo-5-((4-(thieno[2,3-d]pyrimidin-4-yl)piperazin-1-yl)methyl)isoindolin-2-yl)piperidine-2,6-dione] | A (0% ≤ substrate protein remaining % ≤ 80%) | 500 to 1000 | A (0% ≤ substrate protein remaining % ≤ 80%) | A (0% ≤ substrate protein remaining % ≤ 80%) | A (0% ≤ substrate protein remaining % ≤ 80%) | A (0% ≤ substrate protein remaining % ≤ 80%) | B (80%< substrate protein remaining %≤ 100%)
Cc1csc2ncnc(N3CCN(Cc4ccc5c(c4)CN(C4CCC(=O)NC4=O)C5=O)CC3)c12 (centres unmarked) [GT-04679, 3-(5-((4-(5-methylthieno[2,3-d]pyrimidin-4-yl)piperazin-1-yl)methyl)-1-oxoisoindolin-2-yl)piperidine-2,6-dione] | B (80%< substrate protein remaining %≤ 100%) | 500 to 1000 | A (0% ≤ substrate protein remaining % ≤ 80%) | B (80%< substrate protein remaining %≤ 100%) | B (80%< substrate protein remaining %≤ 100%) | B (80%< substrate protein remaining %≤ 100%) | A (0% ≤ substrate protein remaining % ≤ 80%)
Cc1cc2c(N3CCN(Cc4ccc5c(c4)CN(C4CCC(=O)NC4=O)C5=O)CC3)ncnc2s1 (centres unmarked) [GT-04680, 3-(5-((4-(6-methylthieno[2,3-d]pyrimidin-4-yl)piperazin-1-yl)methyl)-1-oxoisoindolin-2-yl)piperidine-2,6-dione] | B (80%< substrate protein remaining %≤ 100%) | 500 to 1000 | A (0% ≤ substrate protein remaining % ≤ 80%) | B (80%< substrate protein remaining %≤ 100%) | B (80%< substrate protein remaining %≤ 100%) | B (80%< substrate protein remaining %≤ 100%) | A (0% ≤ substrate protein remaining % ≤ 80%)
O=C1CCC(N2Cc3cc(CN4CCN(c5ncnc6ccsc56)CC4)ccc3C2=O)C(=O)N1 (centres unmarked) [GT-04681, 3-(1-oxo-5-((4-(thieno[3,2-d]pyrimidin-4-yl)piperazin-1-yl)methyl)isoindolin-2-yl)piperidine-2,6-dione] | B (80%< substrate protein remaining %≤ 100%) | 500 to 1000 | A (0% ≤ substrate protein remaining % ≤ 80%) | B (80%< substrate protein remaining %≤ 100%) | B (80%< substrate protein remaining %≤ 100%) | B (80%< substrate protein remaining %≤ 100%) | A (0% ≤ substrate protein remaining % ≤ 80%)
O=C1CCC(N2Cc3cc(CN4CCN(c5nc(Cl)nc6ccsc56)CC4)ccc3C2=O)C(=O)N1 (centres unmarked) [GT-04682, 3-(5-((4-(2-chlorothieno[3,2-d]pyrimidin-4-yl)piperazin-1-yl)methyl)-1-oxoisoindolin-2-yl)piperidine-2,6-dione] | B (80%< substrate protein remaining %≤ 100%) | 500 to 1000 | A (0% ≤ substrate protein remaining % ≤ 80%) | B (80%< substrate protein remaining %≤ 100%) | B (80%< substrate protein remaining %≤ 100%) | B (80%< substrate protein remaining %≤ 100%) | A (0% ≤ substrate protein remaining % ≤ 80%)
Cc1nc(N2CCN(Cc3ccc4c(c3)CN(C3CCC(=O)NC3=O)C4=O)CC2)c2ccsc2n1 (centres unmarked) [GT-04693, 3-(5-((4-(2-methylthieno[2,3-d]pyrimidin-4-yl)piperazin-1-yl)methyl)-1-oxoisoindolin-2-yl)piperidine-2,6-dione] | A (0% ≤ substrate protein remaining % ≤ 80%) | < 500 | A (0% ≤ substrate protein remaining % ≤ 80%) | A (0% ≤ substrate protein remaining % ≤ 80%) | A (0% ≤ substrate protein remaining % ≤ 80%) | B (80%< substrate protein remaining %≤ 100%) | B (80%< substrate protein remaining %≤ 100%)
O=C1CCC(N2Cc3cc(CN4CCN(c5nc6c(c(N7CCOCC7)n5)SCC6)CC4)ccc3C2=O)C(=O)N1 (centres unmarked) [GT-04694, 3-(5-((4-(4-morpholino-6,7-dihydrothieno[3,2-d]pyrimidin-2-yl)piperazin-1-yl)methyl)-1-oxoisoindolin-2-yl)piperidine-2,6-dione] | A (0% ≤ substrate protein remaining % ≤ 80%) | < 500 | A (0% ≤ substrate protein remaining % ≤ 80%) | A (0% ≤ substrate protein remaining % ≤ 80%) | A (0% ≤ substrate protein remaining % ≤ 80%) | B (80%< substrate protein remaining %≤ 100%) | B (80%< substrate protein remaining %≤ 100%)
O=C1CCC(N2Cc3cc(CN4CCN(c5nc(N6CCNCC6)c6sccc6n5)CC4)ccc3C2=O)C(=O)N1 (centres unmarked) [GT-04698, 3-(1-oxo-5-((4-(4-(piperazin-1-yl)thieno[3,2-d]pyrimidin-2-yl)piperazin-1-yl)methyl)isoindolin-2-yl)piperidine-2,6-dione] | A (0% ≤ substrate protein remaining % ≤ 80%) | 500 to 1000 | A (0% ≤ substrate protein remaining % ≤ 80%) | A (0% ≤ substrate protein remaining % ≤ 80%) | A (0% ≤ substrate protein remaining % ≤ 80%) | A (0% ≤ substrate protein remaining % ≤ 80%) | B (80%< substrate protein remaining %≤ 100%)
O=C1CCC(N2Cc3cc(CN4CC(C5CCOc6cc(F)ccc65)C4)ccc3C2=O)C(=O)N1 (centres unmarked) [GT-04700, 3-(5-((3-(7-fluorochroman-4-yl)azetidin-1-yl)methyl)-1-oxoisoindolin-2-yl)piperidine-2,6-dione] | A (0% ≤ substrate protein remaining % ≤ 80%) | 500 to 1000 | A (0% ≤ substrate protein remaining % ≤ 80%) | B (80%< substrate protein remaining %≤ 100%) | A (0% ≤ substrate protein remaining % ≤ 80%) | A (0% ≤ substrate protein remaining % ≤ 80%) | B (80%< substrate protein remaining %≤ 100%)
